From ChEMBL document CHEMBL1146193, “Increased genome instability in Escherichia coli lon mutants: relation to emergence of multiple-antibiotic-resistant (Mar) mutants caused by insertion sequence elements and large tandem genomic amplifications” (2007)
In brackets after ≈: the same amount, converted by molar mass.

How the values were obtained:
Assay type in all cases: functional
Escherichia coli [1] = assay: Antimicrobial activity against Escherichia coli M073 mutant with AG100 lon2::IS186 acrR::IS5 genotype
Escherichia coli [2] = assay: Antimicrobial activity against Escherichia coli AG112 mutant with marR genotype after 250 generations in 5 ug/ml presence of tetracycline
Escherichia coli [3] = assay: Antimicrobial activity against Escherichia coli M043 mutant with AG100 lon4::IS186 marR::IS2 genotype
Escherichia coli [4] = assay: Antimicrobial activity against Escherichia coli M044 mutant with AG100 lon4::IS186 marR::IS genotype
Escherichia coli [5] = assay: Antimicrobial activity against Escherichia coli M084 mutant AG100 lon4::IS186 genotype
Escherichia coli [6] = assay: Antimicrobial activity against Escherichia coli M013 mutant with AG100 delta-(lon-hupB-ppiD) dupIS5 genotype
Escherichia coli [7] = assay: Antimicrobial activity against Escherichia coli AG112 mutant with AG100 marR genotype
Escherichia coli [8] = assay: Antimicrobial activity against Escherichia coli M104 mutant with AG100 dupIS3 genotype
Escherichia coli [9] = assay: Antimicrobial activity against Escherichia coli M083 mutant with AG100 lon4::IS186 acrR::IS1 genotype
Escherichia coli [10] = assay: Antimicrobial activity against Escherichia coli M064 mutant with AG100 lon1::IS186 acrR::IS genotype
Escherichia coli [11] = assay: Antimicrobial activity against Escherichia coli M093 mutant with AG100 lon3::IS186 acrR::IS1 genotype
Escherichia coli [12] = assay: Antimicrobial activity against Escherichia coli M074 mutant with AG100 lon2::IS186 acrR::IS genotype
Escherichia coli [13] = assay: Antimicrobial activity against Escherichia coli M114 mutant with AG100 lon4::IS186 marR::IS2 genotype
Escherichia coli [14] = assay: Antimicrobial activity against Escherichia coli M103 mutant with AG100 lon3::IS186 acrR-acrAB genotype
Escherichia coli [15] = assay: Antimicrobial activity against Escherichia coli M124 mutant with AG100 lon4::IS186 acrR::IS genotype
Escherichia coli [16] = assay: Antimicrobial activity against Escherichia coli AG112 mutant with marR genotype after 125 generations in absence of tetracycline
Escherichia coli [17] = assay: Antimicrobial activity against Escherichia coli AG100 mutant with argE3 thi-3 rpsL xyl mtl supE44 genotype

Compound | MIC (Escherichia coli [1]) [µg/mL] | MIC (Escherichia coli [2]) [µg/mL] | MIC (Escherichia coli [3]) [µg/mL] | MIC (Escherichia coli [4]) [µg/mL] | MIC (Escherichia coli [5]) [µg/mL] | MIC (Escherichia coli [6]) [µg/mL] | MIC (Escherichia coli [7]) [µg/mL] | MIC (Escherichia coli [8]) [µg/mL] | MIC (Escherichia coli [9]) [µg/mL] | MIC (Escherichia coli [10]) [µg/mL] | MIC (Escherichia coli [11]) [µg/mL] | MIC (Escherichia coli [12]) [µg/mL] | MIC (Escherichia coli [13]) [µg/mL] | MIC (Escherichia coli [14]) [µg/mL] | MIC (Escherichia coli [15]) [µg/mL] | MIC (Escherichia coli [16]) [µg/mL] | MIC (Escherichia coli [17]) [µg/mL]
CC1(C)S[C@@H]2[C@H](NC(=O)[C@H](N)c3ccccc3)C(=O)N2[C@H]1C(=O)O [AMPICILLIN] | 6 (≈ 17.2 µM) | 32 | 6 (≈ 17.2 µM) | 6 (≈ 17.2 µM) | 3 (≈ 8.59 µM) | 3 (≈ 8.59 µM) | 6 (≈ 17.2 µM) | 3 (≈ 8.59 µM) | 4 (≈ 11.4 µM) | 6 (≈ 17.2 µM) | 6 (≈ 17.2 µM) | 6 (≈ 17.2 µM) | 8 (≈ 22.9 µM) | 4 (≈ 11.4 µM) | 3 (≈ 8.59 µM) | 12 (≈ 34.3 µM) | 
O=C(N[C@H](CO)[C@H](O)c1ccc([N+](=O)[O-])cc1)C(Cl)Cl [CHLORAMPHENICOL] | 32 (≈ 99 µM) | 256 | 64 (≈ 198 µM) | 32 (≈ 99 µM) |  |  | 24 (≈ 74.3 µM) | 32 (≈ 99 µM) | 32 (≈ 99 µM) | 32 (≈ 99 µM) | 32 (≈ 99 µM) | 48 (≈ 149 µM) | 64 (≈ 198 µM) | 24 (≈ 74.3 µM) | 24 (≈ 74.3 µM) | 24 (≈ 74.3 µM) | 4 (≈ 12.4 µM)
CCn1cc(C(=O)O)c(=O)c2ccc(C)nc21 [NALIDIXIC ACID] | 8 (≈ 34.4 µM) | 192 | 8 (≈ 34.4 µM) | 12 (≈ 51.7 µM) | 6 (≈ 25.8 µM) |  | 12 (≈ 51.7 µM) | 8 (≈ 34.4 µM) | 8 (≈ 34.4 µM) | 12 (≈ 51.7 µM) | 8 (≈ 34.4 µM) | 8 (≈ 34.4 µM) | 8 (≈ 34.4 µM) | 6 (≈ 25.8 µM) | 8 (≈ 34.4 µM) | 24 (≈ 103 µM) | 6 (≈ 25.8 µM)
CCn1cc(C(=O)O)c(=O)c2cc(F)c(N3CCNCC3)cc21 [NORFLOXACIN] | 0.19 (≈ 0.595 µM) | 2 | 0.38 (≈ 1.19 µM) | 0.25 (≈ 0.783 µM) | 0.13 (≈ 0.407 µM) | 0.13 (≈ 0.407 µM) | 0.38 (≈ 1.19 µM) | 0.25 (≈ 0.783 µM) | 0.25 (≈ 0.783 µM) | 0.19 (≈ 0.595 µM) | 0.25 (≈ 0.783 µM) | 0.19 (≈ 0.595 µM) | 0.38 (≈ 1.19 µM) | 0.25 (≈ 0.783 µM) | 0.25 (≈ 0.783 µM) | 0.75 (≈ 2.35 µM) | 0.02 (≈ 0.0626 µM)
CO[C@H]1/C=C/O[C@@]2(C)Oc3c(C)c(O)c4c(O)c(c(/C=N/N5CCN(C)CC5)c(O)c4c3C2=O)NC(=O)/C(C)=C\C=C\[C@H](C)[C@H](O)[C@@H](C)[C@@H](O)[C@@H](C)[C@H](OC(C)=O)[C@@H]1C [RIFAMPIN] | 24 (≈ 29.2 µM) |  | 24 (≈ 29.2 µM) | 24 (≈ 29.2 µM) | 16 (≈ 19.4 µM) | 16 (≈ 19.4 µM) |  | 16 (≈ 19.4 µM) | 16 (≈ 19.4 µM) | 24 (≈ 29.2 µM) | 24 (≈ 29.2 µM) | 24 (≈ 29.2 µM) | 24 (≈ 29.2 µM) | 24 (≈ 29.2 µM) | 16 (≈ 19.4 µM) |  | 16 (≈ 19.4 µM)
CN(C)[C@@H]1C(O)=C(C(N)=O)C(=O)[C@@]2(O)C(O)=C3C(=O)c4c(O)cccc4[C@@](C)(O)[C@H]3C[C@@H]12 [TETRACYCLINE] | 12 (≈ 27 µM) | 128 | 16 (≈ 36 µM) | 4 (≈ 9 µM) | 4 (≈ 9 µM) | 6 (≈ 13.5 µM) | 8 (≈ 18 µM) | 6 (≈ 13.5 µM) | 4 (≈ 9 µM) | 8 (≈ 18 µM) | 4 (≈ 9 µM) | 4 (≈ 9 µM) | 12 (≈ 27 µM) | 6 (≈ 13.5 µM) | 6 (≈ 13.5 µM) | 24 (≈ 54 µM) | 2 (≈ 4.5 µM)
